This passage reports Ki and Km results from publication PMC3946003, “Protein kinase inhibitor SU6668 attenuates positive regulation of Gli proteins in cancer and multipotent progenitor cells” (Biochimica et Biophysica Acta, 2014).

Assay [1] addresses T1, ULK3 (Homo sapiens, UniProt Q6PHR2).
T1 sequence (Q6PHR2 1-472): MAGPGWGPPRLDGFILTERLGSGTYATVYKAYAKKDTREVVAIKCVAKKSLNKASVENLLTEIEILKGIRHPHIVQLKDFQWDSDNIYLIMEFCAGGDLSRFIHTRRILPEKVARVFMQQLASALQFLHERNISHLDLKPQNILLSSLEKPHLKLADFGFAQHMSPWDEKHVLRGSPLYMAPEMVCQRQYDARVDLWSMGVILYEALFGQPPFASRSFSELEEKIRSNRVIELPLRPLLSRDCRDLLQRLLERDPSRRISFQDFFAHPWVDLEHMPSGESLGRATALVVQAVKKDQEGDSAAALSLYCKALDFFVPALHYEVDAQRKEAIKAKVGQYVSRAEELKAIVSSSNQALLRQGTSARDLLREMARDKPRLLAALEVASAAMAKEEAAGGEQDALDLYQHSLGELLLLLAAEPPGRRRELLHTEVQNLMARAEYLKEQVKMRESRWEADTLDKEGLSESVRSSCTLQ
The experiment in a line: in vitro kinase assay (ULK3 autophosphorylation, […] ATP); Ki calculated from IC50 […]. It counts as biochemical. Further details: bacterially expressed and purified His-tagged ULK3 protein.

Assay [2] concerns the target T1, ULK3.

The Ki is the equilibrium dissociation constant of an inhibitor or competing ligand from its target. The term Km denotes the substrate concentration at which the rate is half of its maximum.

For the molecule `Cc1[nH]c(/C=C2\C(=O)Nc3ccccc32)c(C)c1CCC(=O)O` [SU6668, (Z)-5-[(1,2-dihydro-2-oxo-3H-indol-3-ylidene)methyl]-2,4-dimethyl-1H-pyrrole-3-propanoic acid], the Ki on ULK3 [1] is approximately 200 nM.

Take `Nc1ncnc2c1ncn2[C@@H]1O[C@H](COP(=O)(O)OP(=O)(O)OP(=O)(O)O)[C@@H](O)[C@H]1O` [ATP]: on ULK3 [2], the Km stood at 3.2 µM.
